Patent US20120220662A1, “PHYTOCEUTICAL COMPOSITIONS FOR PETS” (BIOKAB, S.A. DE C.V., priority 2009, published 2012)

Experiment: Accelerated Oxidization Tests (anti-oxidizing ability, peroxides)
Conditions: 200 ppm (extract: Nejayote 1000 ppm + 200 ppm Pure Ferulic Acid)
Experimental: The tests of anti-oxidizing ability of the compositions in examples 1, 2 and 3. Said anti-oxidizing ability is the ability which conveys, to a considerable extent, the phytoceutical properties of our composition.
The determination was performed by AOAC Official Method 965.33/(AOCS Method Cd 8-53) 2000 AOAC International.

SMILES	Accelerated Oxidization Tests (peroxides) (Time 0 Hs)	Accelerated Oxidization Tests (peroxides) (Time 4 Hs)	Accelerated Oxidization Tests (peroxides) (Time 8 Hs)	Accelerated Oxidization Tests (peroxides) (Time 16 Hs)	Accelerated Oxidization Tests (peroxides) (Time 24 Hs)	Accelerated Oxidization Tests (peroxides) (Time 32 Hs)	Accelerated Oxidization Tests (peroxides) (Time 40 Hs)	Accelerated Oxidization Tests (peroxides) (Time 48 Hs)	Accelerated Oxidization Tests (peroxides) (Time 56 Hs)	Accelerated Oxidization Tests (peroxides) (Time 64 Hs)	Accelerated Oxidization Tests (peroxides) (Time 72 Hs)	Accelerated Oxidization Tests (peroxides) (Time 80 Hs)	Accelerated Oxidization Tests (peroxides) (Time 88 Hs)	Accelerated Oxidization Tests (peroxides) (Time 96 Hs)	Accelerated Oxidization Tests (peroxides) (Time 104 Hs)	Accelerated Oxidization Tests (peroxides) (Time 112 Hs)	Accelerated Oxidization Tests (peroxides) (Time 120 Hs)	Accelerated Oxidization Tests (peroxides) (Time 128 Hs)
COc1ccc(O)c(C(C)(C)C)c1 [pure BHA, Butylated Hydroxy Anisole]	0.00 Meq/Kg	0.00 Meq/Kg	0.00 Meq/Kg	0.00 Meq/Kg	0.00 Meq/Kg	0.00 Meq/Kg	0.00 Meq/Kg	0.60 Meq/Kg	0.68 Meq/Kg	1.09 Meq/Kg	0.91 Meq/Kg	1.89 Meq/Kg	8.03 Meq/Kg	41.94 Meq/Kg	45.11 Meq/Kg	36.12 Meq/Kg	24.10 Meq/Kg	6.16 Meq/Kg
COc1cc(/C=C/C(=O)O)ccc1O [Pure Ferulic Acid, ferulic acid]	0.00 Meq/Kg	0.00 Meq/Kg	0.00 Meq/Kg	0.00 Meq/Kg	0.00 Meq/Kg	3.17 Meq/Kg	4.19 Meq/Kg	7.25 Meq/Kg	13.61 Meq/Kg	20.18 Meq/Kg	21.12 Meq/Kg	24.19 Meq/Kg	31.16 Meq/Kg	36.19 Meq/Kg	51.14 Meq/Kg	31.05 Meq/Kg	21.05 Meq/Kg	0.00 Meq/Kg
